Data: US5071848A, “Tricyclic quinoline antineoplastic agents” (Abbott Laboratories, priority 1989, dated 1991)
Values after ≈ are worked out from the molar mass of the structure shown. “Also recorded” adds a separate entry of the source. Read-outs that look alike come from different tables or passages of the source. Blank lines part the entries; values can stand above or below the compound they belong to.

Columns and labels:
Hela cells = experiment: In vitro cytotoxicity assay (three day MTT microtiter assay), Hela; format: cell-based; settings: Homo sapiens, 72 h, read-out: In vitro tumor cell cytotoxicity (IC50), Hela
Protocol: (§1) IC50 's were measured in a colorimetric assay for cytotoxic activity against cultured cells according to the protocol described below:
(§2) A three day microtiter assay is used to measure the growth inhibition of cultured cells exposed to a range of drug concentrations. Metabolic activity is measured by the cell's ability to reduce the tetrazolium dye, MTT (3-(4,5-dimethylthiazol-2-yl)-2,5-diphenyltetrazolium bromide) to a quantifiable colored end-product, which absorbs at 570 nm in the visible spectrum. Surviving cells reduce the MTT dye.
(§3) Test compounds are dissolved in dimethyl sulfoxide (DMSO) and diluted, first with Earle's Balanced Salt Solution, followed by culture medium, to twice the highest concentration of compound to be tested. From this concentrated stock, two-fold serial dilutions are prepared in 96-well microtiter trays, each well containing twice the desired final concentration of compound. Each concentration is tested in triplicate and compared to triplicate drug-free controls.
(§4) The cells are grown in the same medium used for diluting the compounds. After harvesting by trypsinization*, viable cell counts are determined and cell density is adjusted to 25,000 cells/mL. Inoculum (0.1 mL), containing the cells, is then added to each well for a final concentration of 2,500 cells per well. Addition of the inoculum dilutes the test compounds to the desired final concentration.
(§5) *Adherent cells are harvested by trypsinization as follows:
(§6) 1. Remove the medium by aspiration.
(§7) 2. Rinse cell monolayer twice with Earle's Balanced Salt Solution.
(§8) 3. Add trypsin (0.05%)/EDTA (0.53 mM). For each 25 cm^2 use approximately 0.2 mL of solution, tilt to cover the monolayer, then withdraw trypsin leaving only a thin film of solution. Incubate at room temperature until cell monolayer detaches.
(§9) 4. When the cells have detached as determined by visual and/or microscopic observation, add medium containing fetal calf serum to stop the action of the trypsin and resuspend the cells. Triturate to aid dissociation of cell clumps.
(§10) 5. Determine the number of cells per milliliter by electronic cell counter (e.g. Coulter Counter) or by mixing an aliquot of cell suspension with Trypan Blue (0.4% in normal saline) and counting the viable cells using a hemacytometer.
(§11) Microtiter trays are incubated for three days at 36° C. in a humidified atmosphere containing 5% carbon dioxide.
(§12) After three days, 20 microtiters of 5 mg/mL MTT in phosphate-buffered saline solution is added to each well. Trays are returned to the incubator for two to four hours to allow the surviving cells to reduce the dye. Medium and unreduced dye are removed by aspiration. DMSO is added to each well to dissolve the water insoluble, colored end product of the dye reduction so that it can be measured spectrophotometrically at 570 nm.

[1] = test system: P388.D1 leukemia cell line; experiment: In vitro cytotoxicity assay (three day MTT microtiter assay), P388.D1; format: cell-based; settings: Mus musculus, P388D1, 72 h, read-out: In vitro tumor cell cytotoxicity (IC50), P388.D1
Protocol: (§13) The cytotoxity of the compounds of the present invention is illustrated in Table 6. IC50 's were measured in a colorimetric assay for cytotoxic activity against cultured cells according to the protocol described below:
as §2, §3, §4, §5, §6, §7, §8, §9, §10, §11
as §12, with “nm. The IC50 is determined as the concentration of compound tested required to reduce the absorbance at 570 nm to 50% of non-drug treated control values.” for “nm.”
^c P388 D1 is a leukemia cell line.

A549 cell line = experiment: In vitro cytotoxicity assay (three day MTT microtiter assay), A549; format: cell-based; settings: Homo sapiens, read-out: In vitro tumor cell cytotoxicity (IC50), A549
Protocol: as §1, §2, §3, §4, §5, §6, §7, §8, §9, §10, §11, §12

[2] = test system: HCT-8 colon cancer cell line; experiment: In vitro cytotoxicity assay (three day MTT microtiter assay), HCT-8; format: cell-based, human; settings: read-out: In vitro tumor cell cytotoxicity (IC50), HCT-8
Protocol: as §1, §2
Test compounds are dissolved in dimethyl sulfoxide (DMSO) and diluted, first with Earle's Balanced Salt Solution, followed by culture medium, to twice the highest concentration of compound to be tested. […]
The cells are grown in the same medium used for diluting the compounds. After harvesting by trypsinization*, viable cell counts are determined and cell density is adjusted to 25,000 cells/mL. […]
(§14) 4. When the cells have detached as determined by visual and/or microscopic observation, add medium containing fetal calf serum to stop the action of the trypsin and resuspend the cells. […]
After three days, 20 microtiters of 5 mg/mL MTT in phosphate-buffered saline solution is added to each well. […] DMSO is added to each well to dissolve the water insoluble, colored end product of the dye reduction so that it can be measured spectrophotometrically at 570 nm.

DNA topoisomerases = settings: in words; known antitumor drugs; cited from earlier work
DNA topoisomerase II = experiment: DNA Breakage Assay: topoisomerase II-mediated DNA breakage (linearized 32P-labeled PBR 322 plasmid, agarose gel); format: biochemical, calf; set-up: key to Topoisomerase II-mediated DNA breakage, extent of breakage: SB: strong breakage; MB: moderate breakage; WB: weak breakage; settings: for Topoisomerase II-mediated DNA breakage, extent of breakage: at the concentration given; for Topoisomerase II-mediated DNA breakage, Concentration: concentration of compound which cleaves the DNA to smaller fragments, 30 minutes incubation
Protocol: Antitumor activity was assayed using the DNA Breakage Assay described below.
The DNA breakage assay requires two major reagents: DNA topoisomerase II and radiolabeled DNA. DNA topoisomerase II (topo II) was isolated from calf thymus as described by B. D. Holligan, et al. in J. Biol. Chem., 260, 2475-2482 (1985). Pure enzyme or partially purified extracts enriched in topo II activity may be used. PBR 322 plasmid was used as the DNA substrate. This plasmid, which is isolated in the closed circular form, is first linearized using, a restriction enzyme which cuts the plasmid in only one place. The newly exposed ends of the plasmid are then labeled with the radionuclide, 32P, using standard techniques described by T. Maniatis, et al. in "Molecular Cloning", Cold Spring Harbor Press, p. 115 (1982).
The enzyme and the radiolabeled DNA are added together first, then drug is added. After an incubation period of 30 minutes, the mixtures are quenched using 1% SDS. The mixtures are then subjected to agarose gel electrophoresis which separates the full length, linear substrate DNA from any small fragments that might be formed as a consequence of drug action. Smaller fragments run with a higher mobility. The distribution of the DNA species in the gel is assessed by autoradiography as described by T. Maniatis, et al. in "Molecular Cloning", Cold Spring Harbor Press, p. 115 (1982).
DNA breakage activity is assessed based on the level of substrate lost, the level of DNA appearing as smaller pieces running faster in the gel, and the distribution of these smaller pieces in the gel. The last criterion is important since drug-induced DNA cleavage that is enzyme-mediated fragmentation results in specific banding patterns due to the fact that the enzyme binds to specific sequences along the DNA molecule. A definite banding pattern is thus indicative of topo II-mediated cleavage and correlates well with anti-tumor activity.

[3] = test system: Lewis Lung Carcinoma (LLC1) cells; experiment: In vitro cytotoxicity assay (three day MTT microtiter assay), LLC1; format: cell-based, murine; settings: Mus musculus, LLC1, 72 h, read-out: In vitro tumor cell cytotoxicity (IC50), LLC1
Protocol: as §13, §2, §3, §4, §5, §6, §7
3. […]
as §14
After three days, 20 microtiters of 5 mg/mL MTT in phosphate-buffered saline solution is added to each well. […] DMSO is added to each well to dissolve the water insoluble, colored end product of the dye reduction so that it can be measured spectrophotometrically at 570 nm. […]

[4] = test system: Lewis Lung carcinoma (LL); experiment: In vivo antitumor activity, Lewis Lung carcinoma (LL), tumor weight inhibition; set-up: species or system BDF1 mice; settings: IP, day 1 to day 9, determined on day 14
Protocol: (§15) The in vivo data presented in Table 7 was determined in BDF1 mice for two murine cancer models, using 6 to 10 animals per test group. In the case of Lewis Lung carcinoma (LL) the mice are inoculated subcutaneously (SC) in the axillary region with a puncture in the inguinal area with the tumor on day 0. The compound being tested is administered intraperitoneally (IP) from day 1 to day 9 for a total of nine injections. The tumors are weighed on day 14 and the weight inhibition expressed as the median weight ratio of treated (T) to control (C) tumors. In the case of P388 Leukemia cells, a suspension of diluted ascites fluid (0.1 mL) containing 1×10^6 cells is implanted IP into the mice on day 0 and the compound being tested is administered IP from day 1 to day 5 for a total of five injections. Survival was monitored for 30 days and the increased lifespan expressed as median survival time of treated (T) to control (C) mice.

P388 Leukemia = experiment: In vivo antitumor activity, P388 Leukemia, increased lifespan; set-up: species or system BDF1 mice; settings: IP, day 1 to day 5, survival monitored 30 days
Protocol: as §15

SMILES: COc1cc([C@@H]2c3cc4c(cc3[C@@H](O[C@@H]3O[C@@H]5CO[C@@H](C)O[C@H]5[C@H](O)[C@H]3O)[C@H]3COC(=O)[C@H]23)OCO4)cc(OC)c1O [Etoposide, etoposide, reference compound]
- IC50 (Hela cells; HeLa): 4 µg/mL (≈ 6.8 µM)
- IC50 [1]: 0.05 µg/mL (≈ 0.085 µM)
- IC50 (A549 cell line; A549, 72 h): 1 µg/mL (≈ 1.7 µM)
- IC50 ([2]; Homo sapiens, HCT-8, 72 h): 0.68 µg/mL (≈ 1.16 µM)
- effect on DNA topoisomerase-mediated DNA breakage-rejoining / cleavage (DNA topoisomerases): found to affect the breakage-rejoining reaction of mammalian DNA mediated by DNA topoisomerases; also recorded: known to act by inducing topo II mediated DNA cleavage

SMILES: O=c1[nH]sc2c1c(=O)c1cc(F)c(N3CCNCC3)c(F)c1n2C1CC1 [Example 2]
- Topoisomerase II-mediated DNA breakage, extent of breakage (DNA topoisomerase II): SB
- Topoisomerase II-mediated DNA breakage, Concentration (DNA topoisomerase II): 32 µg/mL
- IC50 (Hela cells; HeLa): 3.9 µg/mL (≈ 10.3 µM)
- IC50 [3]: 0.99 µg/mL (≈ 2.62 µM)

- Topoisomerase II-mediated DNA breakage, extent of breakage (DNA topoisomerase II): SB
- Topoisomerase II-mediated DNA breakage, Concentration (DNA topoisomerase II): 32 µg/mL
SMILES: CC1CN(c2c(F)cc3c(=O)c4c(=O)[nH]sc4n(C4CC4)c3c2F)CCN1 (centres unmarked) [Example 3]
- IC50 [1]: 3.1 µg/mL (≈ 7.9 µM)
- IC50 (A549 cell line; 72 h, A549, three days, MTT): 8.3 µg/mL (≈ 21.2 µM)
- IC50 ([2]; 72 h, HCT-8 human colon cancer, three days, MTT): 14 µg/mL (≈ 35.7 µM)
- LL (T/C), median weight ratio of treated to control tumors ([4]; 31.5 mg/kg): 0.81
- LL (T/C), median weight ratio of treated to control tumors ([4]; 62.5 mg/kg): 0.75
- LL (T/C), median weight ratio of treated to control tumors ([4]; 125 mg/kg): 0.59
- LL (T/C), median weight ratio of treated to control tumors ([4]; 250 mg/kg): 0.35
- P388 Leukemia % T/C, median lifespan of treated compared to control mice (P388 Leukemia; 31.5 mg/kg): 145%
- P388 Leukemia % T/C, median lifespan of treated compared to control mice (P388 Leukemia; 62.5 mg/kg): 145%
- P388 Leukemia % T/C, median lifespan of treated compared to control mice (P388 Leukemia; 125 mg/kg): 160%
- P388 Leukemia % T/C, median lifespan of treated compared to control mice (P388 Leukemia; 250 mg/kg): 160%

- Topoisomerase II-mediated DNA breakage, extent of breakage (DNA topoisomerase II): SB
- Topoisomerase II-mediated DNA breakage, Concentration (DNA topoisomerase II): 32 µg/mL
SMILES: NC1CCN(c2c(F)cc3c(=O)c4c(=O)[nH]sc4n(C4CC4)c3c2F)C1 (centres unmarked) [Example 11]
- IC50 (Hela cells; Hela cells, three days, MTT): 0.95 µg/mL (≈ 2.51 µM)
- IC50 ([3]; Lewis Lung Carcinoma, three days, MTT): 0.52 µg/mL (≈ 1.37 µM)

SMILES: CCn1c2s[nH]c(=O)c2c(=O)c2cc(F)c(N3CCNCC3)c(F)c21 [Example 14]
- Topoisomerase II-mediated DNA breakage, extent of breakage (DNA topoisomerase II): MB
- Topoisomerase II-mediated DNA breakage, Concentration (DNA topoisomerase II): 64 µg/mL
- IC50 (Hela cells; HeLa): 4 µg/mL (≈ 10.9 µM)
- IC50 [3]: 1.5 µg/mL (≈ 4.09 µM)

SMILES: O=C1c2c(O)ccc(O)c2C(=O)c2c(NCCNCCO)ccc(NCCNCCO)c21 [mitoxantrone]
- effect on DNA topoisomerase-mediated DNA breakage-rejoining / cleavage (DNA topoisomerases): found to affect the breakage-rejoining reaction of mammalian DNA mediated by DNA topoisomerases

SMILES: COc1cc([C@@H]2c3cc4c(cc3[C@@H](O[C@@H]3O[C@@H]5CO[C@@H](c6cccs6)O[C@H]5[C@H](O)[C@H]3O)[C@H]3COC(=O)[C@H]23)OCO4)cc(OC)c1O [teniposide]
- effect on DNA topoisomerase-mediated DNA breakage-rejoining / cleavage (DNA topoisomerases): found to affect the breakage-rejoining reaction of mammalian DNA mediated by DNA topoisomerases; also recorded: known to act by inducing topo II mediated DNA cleavage
